Results: patent US20240336602A1 (Katholieke Universiteit Leuven, priority 2020, published 2024)

Biological target: T1, mouse TRPM3a2 (mTRPM3) ion channel (Mus musculus, UniProt J9SQF3)
T1 construct: expressed in transfected cells; host or cells: flip-in HEK293
Test: TRPM3 ion channel driven Ca2+ uptake, Fluo-4 AM assay (PS-stimulated, overexpressing flip-in HEK293 cells)
Format: cell-based
Conditions: PS (50 μM) stimulated
Summary of the method: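 Flip-in HEK293 cells overexpressing mTRPM3α2, loaded with Fluo-4 AM, were added to wells with compound plus 50 μM pregnenolone sulfate in Ca2+-containing Krebs buffer and read immediately (ex 485/em 535 nm). Percent inhibition was scaled between PS-plus-vehicle and positive-control-inhibitor signals.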

T1 sequence (J9SQF3 1-1709 isoform J9SQF3-12): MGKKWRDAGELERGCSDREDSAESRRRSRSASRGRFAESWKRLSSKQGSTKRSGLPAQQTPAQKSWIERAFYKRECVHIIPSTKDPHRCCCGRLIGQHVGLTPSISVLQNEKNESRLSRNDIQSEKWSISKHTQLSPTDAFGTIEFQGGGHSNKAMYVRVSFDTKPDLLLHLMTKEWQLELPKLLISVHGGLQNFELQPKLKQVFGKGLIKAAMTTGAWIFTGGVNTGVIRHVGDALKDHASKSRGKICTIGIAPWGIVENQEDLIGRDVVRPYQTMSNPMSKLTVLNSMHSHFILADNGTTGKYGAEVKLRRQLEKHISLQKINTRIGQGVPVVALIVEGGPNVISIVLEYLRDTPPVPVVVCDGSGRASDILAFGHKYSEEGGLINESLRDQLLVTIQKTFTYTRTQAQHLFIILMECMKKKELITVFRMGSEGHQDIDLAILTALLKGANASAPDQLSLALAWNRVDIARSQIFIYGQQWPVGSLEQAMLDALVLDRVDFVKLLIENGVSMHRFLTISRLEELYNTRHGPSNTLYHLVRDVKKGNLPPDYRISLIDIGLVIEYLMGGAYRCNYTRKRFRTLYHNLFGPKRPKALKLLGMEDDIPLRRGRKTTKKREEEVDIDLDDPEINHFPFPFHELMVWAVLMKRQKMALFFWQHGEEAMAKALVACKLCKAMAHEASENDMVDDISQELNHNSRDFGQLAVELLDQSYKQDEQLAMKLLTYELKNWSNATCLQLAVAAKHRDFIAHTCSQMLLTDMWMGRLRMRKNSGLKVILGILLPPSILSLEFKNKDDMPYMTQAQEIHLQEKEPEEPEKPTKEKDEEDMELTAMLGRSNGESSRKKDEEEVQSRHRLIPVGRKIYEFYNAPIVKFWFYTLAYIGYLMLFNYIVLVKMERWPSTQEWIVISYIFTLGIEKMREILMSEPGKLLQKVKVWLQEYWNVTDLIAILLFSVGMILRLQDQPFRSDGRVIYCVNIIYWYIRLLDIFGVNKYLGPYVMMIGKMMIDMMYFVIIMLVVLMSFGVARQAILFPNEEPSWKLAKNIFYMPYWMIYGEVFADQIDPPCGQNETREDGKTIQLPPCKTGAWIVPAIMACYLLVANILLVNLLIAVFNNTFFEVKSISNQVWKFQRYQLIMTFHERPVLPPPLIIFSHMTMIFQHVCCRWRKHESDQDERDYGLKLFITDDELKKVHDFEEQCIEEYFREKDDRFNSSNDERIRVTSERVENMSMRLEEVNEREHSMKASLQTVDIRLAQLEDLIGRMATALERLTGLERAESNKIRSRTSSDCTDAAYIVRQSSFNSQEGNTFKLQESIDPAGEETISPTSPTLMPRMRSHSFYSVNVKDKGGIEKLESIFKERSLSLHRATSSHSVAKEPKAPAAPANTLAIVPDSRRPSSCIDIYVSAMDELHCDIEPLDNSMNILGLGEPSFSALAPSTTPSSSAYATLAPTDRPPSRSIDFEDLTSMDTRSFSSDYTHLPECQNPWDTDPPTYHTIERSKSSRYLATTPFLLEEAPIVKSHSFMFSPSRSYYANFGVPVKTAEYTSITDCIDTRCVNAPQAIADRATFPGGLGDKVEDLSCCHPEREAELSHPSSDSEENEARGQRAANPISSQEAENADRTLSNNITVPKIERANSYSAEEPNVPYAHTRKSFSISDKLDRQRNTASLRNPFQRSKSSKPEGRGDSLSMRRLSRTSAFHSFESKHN

Row | IC50 (cpds. 600-666) [nM] | IC50 (cpds. 667-751) [nM] | Structure (SMILES)
1 | 1000 to 20000 | – | Cc1oc2ccc(OCc3cccnc3C(F)(F)F)cc2c1C(=O)N(CCO)C1CCC1 [cpd 659, N-cyclobutyl-N-(2-hydroxyethyl)-2-methyl-5-((2-(trifluoromethyl)pyridin-3-yl)methoxy)benzofuran-3-carboxamide]
2 | – | ≤ 1000 | Cc1cc(COc2ccc3oc(C)c(C(=O)N[C@@H](CO)C(N)=O)c3c2)on1 [cpd 674]
3 | – | ≤ 1000 | Cc1oc2ccc(OCc3c[nH]nc3C(F)(F)F)cc2c1C(=O)N[C@H](C(N)=O)[C@@H](C)O [cpd 685, N-((2S,3R)-1-amino-3-hydroxy-1-oxobutan-2-yl)-2-methyl-5-((3-(trifluoromethyl)-1H-pyrazol-4-yl)methoxy)benzofuran-3-carboxamide]
4 | – | 1000 to 20000 | Cc1oc2ccc(OCc3ncccc3C3CC3)cc2c1C(=O)NC1(CO)CCOCC1 [cpd 705, 5-((3-cyclopropylpyridin-2-yl)methoxy)-N-(4-(hydroxymethyl)tetrahydro-2H-pyran-4-yl)-2-methylbenzofuran-3-carboxamide]
